For data set [1], the system named is monkey BCMA-MFC. Put plainly: SPR (Biacore 4000) binding kinetics to monkey BCMA-MFC. Particulars: 25° C. The method, then: The CM5 Biacore sensor surface was derivatized by amine coupling with a monoclonal mouse anti-human Fc antibody (GE, #BR-11008-39) to capture purified anti-BCMA mAbs and anti-BCMA×anti-CD3 bispecific mAbs. All Biacore binding studies were performed in a buffer composed of 0.01 M HEPES pH 7.4, 0.15M NaCl, 3 mM EDTA, 0.05% v/v Surfactant P20 (HBS-ET running buffer). […] Antigen samples were then injected over the anti-BCMA and anti-BCMA×anti-CD3 bispecific mAbs captured surfaces at a flow rate of 30 μL/minute. Antibody-reagent association was monitored for 5 minutes while dissociation in HBS-ET running buffer was monitored for 10 minutes. All of the binding kinetics experiments were performed at 25° C. Kinetic association (ka) and dissociation (kd) rate constants were determined by fitting the real-time sensorgrams to a 1:1 binding model using Scrubber 2.0c curve fitting software. Binding dissociation equilibrium constants (KD) and dissociative half-lives (t½) were calculated from the kinetic rate constants as: […]
monkey BCMA-MFC, sequence (as listed by the source): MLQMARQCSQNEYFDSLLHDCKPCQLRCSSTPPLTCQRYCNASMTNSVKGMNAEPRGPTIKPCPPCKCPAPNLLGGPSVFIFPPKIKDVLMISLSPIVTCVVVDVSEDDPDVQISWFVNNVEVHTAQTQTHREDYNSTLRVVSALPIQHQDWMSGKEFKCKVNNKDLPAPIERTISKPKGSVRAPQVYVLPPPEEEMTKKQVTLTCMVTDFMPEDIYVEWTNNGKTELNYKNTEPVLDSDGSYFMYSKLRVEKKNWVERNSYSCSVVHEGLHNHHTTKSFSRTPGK
(In SPR one partner is held on a chip, and binding of the other changes the refractive index at the surface.)

The subject of data set [2] is B16/BCMA tumors. Put plainly: Syngenic B16/BCMA tumor model in CD3-humanized mice (Example 16). The class given is in vivo, mouse. Particulars: for Average Tumor Size (mm3) ± SEM on Day 5 / Average Tumor Size (mm3) ± SEM on Day 10 / Average Tumor Size (mm3) ± SEM on Day 14 / Average Tumor Size (mm3) ± SEM on Day 18: B16/BCMA Tumor. How it is done:
(§1) To determine the in vivo efficacy of anti-BCMA×anti-CD3 bispecific antibodies (Abs), a syngenic tumor study was performed in mice expressing human CD3. C57BL/6 mice that express human CD3deg in place of murine CD3deg (CD3-humanized mice) were subcutaneously implanted with either 0.5×10^6 B16 melanoma cells that have been engineered to express full-length human BCMA (B16/BCMA cells) or 1×10^6 MC38 colon carcinoma cells that have been engineered to express full-length human BCMA (MC38/BCMA). […] The mice were administered these Abs twice more on days 4 and 7 for a total of three doses, and tumor growth was assessed throughout the experiment.
(§2) Implantation and measurement of syngenic tumors: C57BL/6 mice that express human CD3deg in place of murine CD3deg (CD3-humanized mice) were subcutaneously implanted with either 0.5×10^6 B16F10 melanoma cells that have been engineered to express full-length human BCMA (B16/BCMA cells) or 1×10^6 MC38 colon carcinoma cells that have been engineered to express full-length human BCMA (MC38/BCMA). […] The mice were administered these Abs twice more on days 4 and 7 for a total of three doses, and tumor growth was assessed throughout the experiment.
(§3) Calculation of syngenic tumor growth and inhibition: In order to determine tumor volume by external caliper, the greatest longitudinal diameter (length in mm) and the greatest transverse diameter (width in mm) were determined. Tumor volumes based on caliper measurements were calculated by the formula: Volume (mm^3)=(length×width^2)/2.

Data set [3] relates to primary human plasma cells (CD138+). The experiment in a line: Autologous T cell-mediated killing of human plasma cells. The class given is cell-based. The method, then:
The specific killing of enriched CD138^+ human or cynomolgus monkey plasma cells by unstimulated autologous T cells was assessed by flow cytometry. Human or cynomolgus bone marrow aspirates and blood were provided within 24 hours of harvest. CD138^+ plasma cells were enriched from bone marrow by positive selection using the EasySep™ Human CD138^+ Positive Selection kit according to the manufacturer's instructions. PBMC from whole blood were isolated by density separation. PBMC were labeled with 1 μM of Vybrant™ CFDA-SE fluorescent tracking dye. […] At the end of the culture, surviving CD138^+ plasma cells were analyzed by flow cytometry, utilizing fixable LIVE/DEAD dye and plasma cell specific cell surface markers. Percent viability was normalized to control condition (plasma cells in the presence of PBMC only). T cell activation was assessed by flow cytometry. Activation is reported as the percentage of CD2^+/CD4^+ or CD2^+/CD8^+/CD16^− T cells expressing CD25. Percent T cell activation was normalized to control condition (plasma cells in the presence of PBMC only).

The test system of data set [4] is MC38/BCMA tumors. Put plainly: Syngenic MC38/BCMA tumor model, combination with anti-PD-1 (Example 20). The data set is classed as in vivo. Particulars: REGN5458 0.04 or 0.24 mg/kg plus anti-mouse PD-1 (Clone RPM1-14) 4 mg/kg. The method, then:
Implantation and measurement of syngenic tumors: C57BL/6 mice that express human CD3deg in place of murine CD3deg (CD3-humanized mice) were subcutaneously implanted with 1×10^6 MC38 colon carcinoma cells that have been engineered to express full-length human BCMA (MC38/BCMA).
The mice were administered these Abs twice more on days 7 and 11 for a total of three doses, and tumor growth was assessed throughout the experiment.
as §3

Data set [5] concerns MC38/BCMA tumors. Put plainly: Syngenic MC38/BCMA tumor model in CD3-humanized mice (Example 16). The class given is in vivo, mouse. How it is done: as §1, §2, §3

Read-outs that look alike come from different tables or passages of the source.

As to “REGN5459: anti-BCMA×anti-CD3 bispecific antibody: BCMA HCVR of mAb21581 (SEQ 66), CD3 HCVR of mAb7221G20 (SEQ 98), common LCVR SEQ 82”, in data set [1], the “ka” value was 482000 M⁻¹ s⁻¹ and the “kd” value was 7.15e-05 s⁻¹.

In the case of “REGN5458: anti-BCMA×anti-CD3 bispecific antibody: BCMA HCVR of mAb21581 (SEQ 66), CD3 HCVR of mAb7221G (SEQ 90), common LCVR SEQ 82”, the “Average Tumor Size (mm3) ± SEM on Day 5” value in data set [2] (0.04 mg/kg) is reported as 3.3 ± 2.2 mm3; in data set [2] (0.4 mg/kg), 0.0 ± 0.0 mm3; in data set [5] (MC38/BCMA Tumor, 0.04 mg/kg, Day 5), 11.9 ± 2.9 mm3. Besides, the “Average Tumor Size (mm3) ± SEM on Day 10” value in data set [2] (0.04 mg/kg) worked out at 15.4 ± 12.5 mm3; in data set [2] (0.4 mg/kg), 0.0 ± 0.0 mm3; in data set [5] (MC38/BCMA Tumor, 0.04 mg/kg), 66.7 ± 22.5 mm3; in data set [5] (MC38/BCMA Tumor, 0.4 mg/kg), 0.0 ± 0.0 mm3. The “Average Tumor Size (mm3) ± SEM on Day 14” value turned out to be 81.4 ± 49.2 mm3 in data set [2] (0.04 mg/kg); 8.1 ± 4.4 mm3 in data set [2] (0.4 mg/kg); 273.3 ± 115.3 mm3 in data set [5] (MC38/BCMA Tumor, 0.04 mg/kg); 2.9 ± 2.9 mm3 in data set [5] (MC38/BCMA Tumor, 0.4 mg/kg). Besides, the “Average Tumor Size (mm3) ± SEM on Day 18” value in data set [2] (0.04 mg/kg) came out at 127.2 ± 63.9 mm3; in data set [2] (0.4 mg/kg), 47.1 ± 17.0 mm3; in data set [5] (MC38/BCMA Tumor, 0.04 mg/kg), 641.5 ± 309.8 mm3; in data set [5] (MC38/BCMA Tumor, 0.4 mg/kg) it was 7.5 ± 7.5 mm3. Further, the “tumor growth (in words)” value in data set [2] (B16/BCMA, 0.4 or 0.04 mg/kg, three doses) is “suppress the growth of both tumor lines in a dose-dependent manner”; in data set [5] (MC38/BCMA, 0.4 or 0.04 mg/kg, three doses) it was “suppress the growth of both tumor lines in a dose-dependent manner”. The “Cytotoxic Kill Max % Cytotoxicity” value in data set [3] (Human Donor 1 plasma cells, autologous primary human T cells, E:T 10:1, 72 hours) is on record as 91%; in data set [3] (Human Donor 2 plasma cells, autologous primary human T cells, E:T 10:1, 72 hours) it was 89%. Also, the EC50 in data set [3] (Human Donor 1 plasma cells, autologous primary human T cells, read-out: T Cell Activation (% CD25 Upregulation) CD8+ T cells EC50) is 214 pM; in data set [3] (Human Donor 2 plasma cells, autologous primary human T cells, E:T 10:1, 72 hours, read-out: Cytotoxic Kill EC50), 191 pM; in data set [3] (human donor 1, CD25, read-out: CD8+ T cell activation EC50), 214 pM; in data set [3] (human donor 1, read-out: cytotoxicity EC50), 42.8 pM; in data set [3] (human donor 2, CD25, read-out: CD8+ T cell activation EC50), 860 pM; in data set [3] (human donor 2, read-out: cytotoxicity EC50), 191 pM. Also, the “T Cell Activation (% CD25 Upregulation) CD8+ T cells % Activation” value in data set [3] (Human Donor 2 plasma cells, autologous primary human T cells, maximum) stood at 36%. In addition, the values for the maximum percent cytotoxicity in data set [3] (human donor 1) and in data set [3] (human donor 2) were 91% and 89%, respectively. Also, the “maximum percent CD8+ T cell activation” value in data set [3] (human donor 2) was 36%. In addition, the “anti-tumor efficacy of the combination (in words)” value in data set [4] is recorded as “superior anti-tumor efficacy”.

The record behind these values is US20260008862A1, “Bispecific Anti-BCMA x Anti-CD3 Antibodies and Uses Thereof” (Regeneron Pharmaceuticals, Inc., priority 2018, published 2026).
